Data published in US20180146698A1, “FORMULA FEED FOR POULTRY” (JXTG Nippon Oil & Energy Corporation, priority 2015, published 2018).

Assays:
Julia Light hens = experiment: Chicken egg color enhancement test 1: yolk color fan value, low- and standard-corn-content feed; type: in vivo, chickens
Description: A preparation of dry cells of a Paracoccus bacterium (with an astaxanthin content of 2%) and a paprika colorant preparation (with a t-capsanthin content of 0.25%) were used as coloring agents for evaluation. Cells of a nitrosoguanidine mutant strain obtained from the Paracoccus carotinifaciens E-396 strain (FERM BP-4283) were used as carotenoid-producing Paracoccus bacterial cells for a preparation of dry cells of a Paracoccus bacterium. The preparation was cultured in a seed flask medium and then cultured in a main culture medium at 28° C. under aerobic conditions until the bacterial cell concentration reached the maximum level. Next, the cultured cells were collected and recovered using a centrifuge. The recovered Paracoccus bacterial cells were dried using a double drum dryer at a drum rotation speed of 3.5 rpm and a drum temperature of 140° C. The average particle size (volume particle size D50) of the obtained power was approximately […]. The powder was further finely powderized (pulverized) using a jet mill (Seishin Enterprise Co., Ltd.) so that the average particle size (D50) became 9 μm. The obtained product was used as a preparation of dry cells of a Paracoccus bacterium. As a paprika colorant preparation, Color Up (a product with a total xanthophyll concentration of 5 g/kg, Kohkin Chemical Co., Ltd.) was used. The above preparations were added to a low-corn-content feed and a standard-corn-content feed listed in Table 1, thereby preparing formula feeds each containing astaxanthin or t-capsanthin at a final concentration of 1, 2, 4, or 8 ppm. Table 2 lists measured concentrations of astaxanthin and t-capsanthin contained in the actually produced formula feeds. Julia Light hens were used for tests. Ten chickens were provided for each test plot. The acclimatization period was set to 2 weeks. Eggs collected in Week 2, during which the color fan value became stabilized, or later, were evaluated. Eggs were collected from each test plot. The color fan values of 10 chicken eggs were measured using Egg Multitester EMT-7300 (JA Z-Tamago Co., Ltd.) for each test plot. The yolk carotenoid concentration was determined for 3 eggs for each test plot. FIGS. 1 and 2 show the relationship between the concentrations of astaxanthin and t-capsanthin in both feeds and the yolk color fan values of the obtained eggs. Based on the results of FIGS. 1 and 2, the concentrations of astaxanthin and t-capsanthin to be added to the low-corn-content feed in order to achieve a desired color fan value of 10 to 15 were calculated (Table 3). For example, in order to achieve a color fan value of 13, astaxanthin may be added to the low-corn-content feed so as to result in a final concentration of 2.2 ppm. Meanwhile, t-capsanthin needs to be added so as to result in a final concentration of 4.3 ppm.

chickens [1] = experiment: Chicken egg color enhancement test 2: yolk color fan value, feeds with corn contents of 30% to 50%; type: in vivo
Description: The effects of the present invention were confirmed using feeds with corn contents of 30% to 50% in the same manner as in Example 1. Formula feeds were prepared by adding astaxanthin or t-capsanthin to feeds with the compositions listed in Table 5 so as to result in a final concentration of 1 to 16 ppm. In this Example, the feeds were the same except the corn content and the content of brown rice, which is added depending on a decrease in the corn content, and corn-derived corn gluten meal was not mixed therein. FIGS. 8a and 8b show the relationship between the astaxanthin and t-capsanthin concentrations in the feeds with corn contents of 30% and 50% and the yolk color fan values for the obtained eggs. Based on the results of FIGS. 8a and 8b, the concentrations of astaxanthin and t-capsanthin to be added to a feed in order to achieve a desired color fan value of 10 to 15 were calculated for feeds with corn contents of 30% and 50% (Table 6).

chickens [2] = experiment: Yolk color measurement using colorimeter 2 (eggs of Example 8); type: in vivo; details: 2 ppm or 4 ppm; corn contents of 0% to 30%
Description: The yolk color of eggs obtained in Example 8 was measured using a colorimeter (CM-700d, Konica Minolta Inc.). FIGS. 14a to 14c show the measurement results of the L*, a*, and b* values, respectively.

SMILES: CC1=C(/C=C/C(C)=C/C=C/C(C)=C/C=C/C=C(C)/C=C/C=C(C)/C=C/C(=O)[C@]2(C)C[C@@H](O)CC2(C)C)C(C)(C)C[C@H](O)C1 (relative stereo) [t-Capsanthin, trans-capsanthin, reference compound]
- change of color fan value, low-corn-content vs standard-corn-content feed (Julia Light hens; colorant added at 4 ppm): did not increase
- CF value (Julia Light hens; colorant added at 4 ppm, low-corn-content feed): 12.2
- CF value (Julia Light hens; colorant added at 4 ppm, standard-corn-content feed): 12.7
- Colorant concentration in feed necessary for achieving the desired CF value (Julia Light hens; desired CF value 10, low-corn-content feed): 1.8 ppm
- Colorant concentration in feed necessary for achieving the desired CF value (Julia Light hens; desired CF value 11, low-corn-content feed): 2.4 ppm
- Colorant concentration in feed necessary for achieving the desired CF value (Julia Light hens; desired CF value 12, low-corn-content feed): 3.2 ppm
- Colorant concentration in feed necessary for achieving the desired CF value (Julia Light hens; desired CF value 13, low-corn-content feed): 4.3 ppm
- Colorant concentration in feed necessary for achieving the desired CF value (Julia Light hens; desired CF value 14, low-corn-content feed): 6.0 ppm
- Colorant concentration in feed to achieve desired CF value (chickens [1]; desired CF value 10, 30% Corn feed): 2.1 ppm
- Colorant concentration in feed to achieve desired CF value (chickens [1]; desired CF value 10, 50% Corn feed): 2.4 ppm
- Colorant concentration in feed to achieve desired CF value (chickens [1]; desired CF value 11, 30% Corn feed): 2.8 ppm
- Colorant concentration in feed to achieve desired CF value (chickens [1]; desired CF value 11, 50% Corn feed): 3.1 ppm
- Colorant concentration in feed to achieve desired CF value (chickens [1]; desired CF value 12, 30% Corn feed): 3.6 ppm
- Colorant concentration in feed to achieve desired CF value (chickens [1]; desired CF value 12, 50% Corn feed): 4.0 ppm
- Colorant concentration in feed to achieve desired CF value (chickens [1]; desired CF value 13, 30% Corn feed): 4.7 ppm
- Colorant concentration in feed to achieve desired CF value (chickens [1]; desired CF value 13, 50% Corn feed): 5.2 ppm
- Colorant concentration in feed to achieve desired CF value (chickens [1]; desired CF value 14, 30% Corn feed): 6.4 ppm
- Colorant concentration in feed to achieve desired CF value (chickens [1]; desired CF value 14, 50% Corn feed): 6.8 ppm
- Colorant concentration in feed to achieve desired CF value (chickens [1]; desired CF value 15, 30% Corn feed): 9.8 ppm
- Colorant concentration in feed to achieve desired CF value (chickens [1]; desired CF value 15, 50% Corn feed): 9.7 ppm
- a* value (red color) of yolk in relation to corn content (chickens [2]): increased in proportional to the corn content
